Laboratory results published in patent USRE39682E1, “Farnesyl derivatives and pharmaceutical compositions containing them” (Ramot at Tel Aviv University Ltd., priority 1993, dated 2007).

Assays:
[1] = tested on: ras-transformed NTH3T3 cells; conditions: cited from earlier work
platelet aggregation = conditions: cited from earlier work
ras methylation = conditions: ras-transformed NTH3T3 cells; cited from earlier work
[2] = target: T1, prenylated protein methyltransferase (PPMTase) (Rattus norvegicus, UniProt Q9WVM4); experiment: Methylation of AFC by PPMTase in rat cerebellar synaptosomal membranes; format: biochemical; conditions: for Ki: Table II, given as range, read-out: Ki
T1 construct: from tissue; host or cells: rat cerebellum, synaptosomal membranes
T1 sequence (Q9WVM4 whole entry): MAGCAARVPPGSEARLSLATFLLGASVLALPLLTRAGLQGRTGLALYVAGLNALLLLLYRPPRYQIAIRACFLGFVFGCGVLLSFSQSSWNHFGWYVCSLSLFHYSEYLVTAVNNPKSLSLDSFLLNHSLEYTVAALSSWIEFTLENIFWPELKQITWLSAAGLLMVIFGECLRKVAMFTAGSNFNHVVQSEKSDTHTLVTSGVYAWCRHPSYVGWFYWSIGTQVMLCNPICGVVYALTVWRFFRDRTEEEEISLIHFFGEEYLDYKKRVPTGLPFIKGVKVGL
From the text: As a substrate for methylation served AFC and as the donor of methyl served [methyl-H^3] labelled AdoMet. As a source of the enzyme prenylated protein methyltransferase (PPTMase) served rat cerebellar membranes which are known to be membranes enriched with this enzyme (Ben-Baruch, Biochem. Biophys. Res. Commun., 195, 282-288. (1993)).
Charles River adult male rats were used for preparation of cerebellar synaptosomal membranes. Cerebella were removed after decapitation and homogenized in 0.32M sucrose containing 50 mM Tris-HCl pH 7.4, 3 mM EDTA, 1 mM EGTA, 5 unit/ml aprotinin and 5 μg/ml pepstatin (buffer A) to yield 10% (w/v) homogenates. Nuclear fractions were obtained by 10 min. 600×g centrifugation and synaptosomal fractions were obtained by 20 mins. 14,500×g centrifugation. Membranes of the various cell types used were prepared in the above buffer A by a 60 min. spin at 100,000×g.
Pellets were resuspended in the homogenization buffer and stored at −70° C. Methylation assays were performed at 37° C. in 50 mM Tris-HCl buffer pH 7.4, using 75-125 μg protein, 25 μM [methyl-^3H]AdoMet ([…] in DMSO) in a total volume of 50 μl. DMSO concentration in all assays was 4%.
Reactions were terminated after 10 min. by adding 500 μl chloroform methanol (1:1) and a subsequent addition of 250 μl H2O, mixing them and subsequently by phase separation. A portion of 125 μl of the chloroform phase was dried down at 40° C. and 200 μl of 1M NaOH/1% SDS solution were added thereto. The [^3H]methanol thus formed was counted by the vapor phase equilibrium method as described previously (Hakiai et al., Cell Mol. Neurobiol., 11, 415-431, (1991); Lenner et al., Cell Mol. Neurbiol., 12, 333 and 3351, (1992); Ben-Baruch et al., Biochem. Biophy. Res. Commun., 195, 282-288, (1993)). Typical background counts (i.e. counts of methylation with no AFC added) were 50-100 cpm while typical methylation counts with AFC as a substrate yielded 500 to 6000 cpm. Assays were performed in triplicate and background counts subtracted. Methylation of endogenous substrates, in intact cells, and [α-^32P] GTP-blot overlay assays and gel electrophoreses were performed as detailed previously (Hakiai et al., supra (1991); Lenner et al., supra (1993)).

neutrophils chemotaxis = conditions: cited from earlier work
[3] = tested on: Ha-ras-transformed rat1 cells; experiment: Growth of ras-transformed rat1 cells (cell counting); format: cell-based, rat; conditions: for EC50: Rattus norvegicus, 168 h, day 7 of drug treatment, estimated from dose response curves, read-out: Inhibition of rab-transformed rat1 cell growth EC50; for effects on cell growth of ras-transformed rat1 cells: drug concentrations up to 200 μM
From the text: The cell lines employed were rat1, -EJ, which are rat1 cells stably expressing Val- 12 activated human Ha-ras gene (Land H. et al., Nature, 304, 596-602, (1983)); V-raf-3T3, which are 3T3 cells stably expressing the V-raf gene (Xu, N., et al., Proc. Natl. Acad. Sci., 90, 6741-6745); RB-22, which are 3T3 cells stably expressing the rat Erb-B2 gene (Peles, et al., EMBO J., 10, 2077-2086 (1991)) CO6O cells (SV40-CHO), which are CHE cells stably expressing the SV-40 T-antigen gene (Lavi, Proc. Natl. Acad. Sci., 78, 6144-6148 (1981)); human endometrial carcinoma cell line HEC1A, which are cells that express activated K-ras (Enomoto T., Cancer Res., 50, 6139-6145; mouse B16F10 melanoma cells, rat pheochromocytoma PC12 cells, […] cells CHE and COS cells.
HEC1A, V-raf-3T3 and SV40-CHE cells were grown in Dulbecco's modified Eagle medium (DMEM) containing 10% fetal calf serum (FCS), 4 mM L-glutamine, 10 μg/ml streptomycin and 10 U/ml penicillin. Rat1 and -EJ cells were grown in the same medium except that it was supplemented with 12.5 U/ml nyostatin. RB-22 cells were grown in modified DMEM (1 mM sodium pyruvate, 20 mM sodium bicarbonate)/10% FCS containing 4 mM L-glutamine, […] streptomycin, 10 U/ml penicillin. PC-12 cells were grown in DMEM 15% FCS/5% horse serum and the above noted antibiotics.
HEC1A cells were plated in 24 well plates at a density of 5×10^3 cells per well and fed with 1 ml of medium. The cells were grown at 37° C. in a humidified atmosphere of 95%/5% air/CO2. All other cell types employed were plated in 24 well plates at a density of 2×10^3 cells per well and fed with the appropriate medium.
Cultures were treated with farnesyl derivatives or with solvent either 3 hrs following plating or one day after plating as indicated. […] Control cultures received 0.1% DMSO only. Cultures were fed on days 6, 7 and 9 of the experiment with the drugs or with solvent-containing media.
Cells were counted following 3, 7 and 10 days of beginning of treatments with drugs. For counting, cells were detached from plates with trypsin/EDTA, and collected by a low speed spin in the presence of DMEM/10% FCS. The pelleted cells were resuspended in a small volume of DMEM/10% FCS and counted under the microscope. Viability of cells was estimated by staining with (3-(4,5-dimethylthiosol-2-yl)-2,5-diphenyltetrazolium bromide (MTT) and microscopic examination of the stained and unstained cells, or spectrophotometric estimation (OD490, 590) of the total stain in each well. Non viable cells were estimated by the trypan blue exclusion method.
Cells were plated at a density 2×10^3/well and received either solvent or drugs one day later. Following 3, 7, or 10 days of the drugs-treatment as described above, cells were collected and the number of cells in each well was estimated by direct counting. […] The effect was apparent after a delay of at least three days. About 40-60% inhibition of cell growth was induced either by FTA or by FTS observed on days 7 and 10 of the treatment.

Row | Structure (SMILES) | inhibition of cell growth [1] | inhibition of platelet aggregation (platelet aggregation) | inhibition of ras methylation (ras methylation) | [3H-methyl]ester formed ([2]; 100 μM AFC alone as substrate) | [3H-methyl]ester formed ([2]; 200 μM of the substance alone as substrate) | inhibition of neutrophils chemotaxis (neutrophils chemotaxis) | EC50 [3] | effects on cell growth of ras-transformed rat1 cells [3] | serves as substrate for PPMTase methylation [2] | Ki [2]
1 | CC(=O)N[C@@H](CSC/C=C(\C)CC/C=C(\C)CCC=C(C)C)C(=O)O (stereo in doubt) [AFC, N-acetyl-trans-trans-farnesyl-L-cysteine] | does not inhibit their growth | inhibit | can inhibit ras methylation | 3200 ± 130 cpm/assay | 3700 ± 150 cpm/assay | inhibit |  |  |  | 
2 | CC(C)=CCC/C(C)=C/CC/C(C)=C/CNc1ccc(Cl)c(C(=O)O)c1 [NFCB, 2-chloro-5-farnesylaminobenzoic acid] |  |  |  |  |  |  | 20 to 40 µM | effects similar to those observed with FTS and FTA | do not serve as substrates | 6.6 to 9.5 µM
3 | CC(C)=CCC/C(C)=C/CC/C(C)=C/CSc1ccc(N)cc1C(=O)O [5-amino FTS] |  |  |  |  |  |  | > 200 µM | not active | do not serve as substrates | 66.1 to 80.5 µM
